Measured values published in patent US20130023535A1, “METHOD OF PREVENTING AND/OR TREATING DIABETIC NEUROPATHY” (Astellas Pharma Inc., priority 2007, published 2013).
Where two headings read alike, the source gives them in different places.

Key:
[1] = test system: STZ (streptozotocin)-induced diabetic rats; details: vs vehicle group
Description: STZ (streptozotocin)-induced diabetic rats were prepared according to the following procedure. STZ (45 mg/kg) was intravenously administered to rats at the age of 7 weeks. At week 2 after administration of STZ, the blood was collected from the tail vein and the blood glucose level was measured to confirm that the blood glucose level was increased to 300 mg/dl or more. In the administration group, the rats were grouped so as to minimize the variation in the mean values of body weight, blood glucose level and pain response threshold measured on the previous day of the administration of the drug. A non-administration group of STZ was separately prepared and used as Normal group. A test drug was orally administered once daily for 28 consecutive days. Paresthesia due to neuropathy was determined by a von Frey Test (pain threshold test) at two time points, at 1 hour after administration on day 28 and on day 7 of cessation of the drug after the last administration (Pain, vol. 53, pp. 81-88, 1993). The test was initiated after the rats were placed in a cage for observation and acclimated for at least 20 minutes. By using a digital von Frey Test model 2390 (manufactured by IITC Inc.), a tip end was lightly applied to a paw. When there was no response, an applied load was increased from 1 to 3 g. The pain threshold was determined as an applied load (g) at which an avoidance response such as paw withdrawal was observed. In each animal, the measurement was performed twice for each of the left and right paws, and the mean of the 4 values was calculated as a withdrawal threshold (g). The improvement of paresthesia was determined based on the recovery of the withdrawal threshold in a drug administration group as compared with a vehicle (distilled water) administration group. Statistical test was performed between the vehicle administration group and the drug administration groups. For confirming the onset of diabetic neuropathy, a Student's t-test was also performed to compare the vehicle administration group and the Normal group.

[2] = test system: STZ-induced diabetic rats; experiment: Motor nerve conduction velocity (MNCV) in STZ-induced diabetic rats; format: in vivo, rat; details: 30 mg/kg
Description: The measurement was performed using the method of Cameron et al. (The Journal of Experimental Physiology, vol. 74, pp. 917-926, 1989) with some modification.
1 were used. Further, the same test was performed also for the Normal group. The rats were anesthetized with sodium pentobarbital, and the temperature of the rectum was maintained at about 37.5° C. using a body temperature maintenance device for small animals, and then, the MNCV was measured using an evoked potential measurement device. First, a positive stimulating electrode was attached to a dorsal region. […] Then, an average waveform evoked by the stimulation was derived from bipolar recording electrodes inserted into a gastrocnemius muscle region of the hind limb of the same side, and the latency (sec) from the start of stimulation to the first deflection of an M-wave was measured. Thereafter, the tibial nerve around behind the knee was stimulated with a negative stimulating electrode in the same manner as above, and the latency (sec) was measured in the same manner as in the gastrocnemius muscle region. A value obtained by dividing a distance (m) between the two regions stimulated with the negative stimulating electrode by a difference (sec) in the M-wave latency measured in the above two stimulation experiments was determined to be an MNCV value. […]

[3] = test system: fibroblast growth factor 2 (FGF-2); experiment: Quantitative PCR of neurotrophic factor expression, spinal cord lumbar region of STZ-induced diabetic rats; format: in vivo, rat; details: 30 mg/kg
Description: (§1) In order to verify whether (+)-2-[(1H-inden-7-yloxy)methyl]morpholine hydrochloride acts on the expression levels of neurotrophic factors, an improving effect of (+)-2-[(inden-7-yloxy)methyl]morpholine hydrochloride on a decrease in the expression levels of neurotrophic factors in the spinal cord and the dorsal root ganglia of STZ-induced diabetic rats was examined.
(§2) The expression levels of neurotrophic factors were measured in the animals on day 7 to 8 of cessation of the drug withdrawal after the repeated daily administration in each of the Normal group, the vehicle administration group (STZ-induced diabetic rats) and the drug administration group at a dose of 30 mg/kg (STZ-induced diabetic rats) in Example 2. The spinal cord lumbar region and the dorsal root ganglia (L4, L5, and L6) were excised and the total RNA was extracted from the excised specimens using an RNA extraction kit RNeasy (Qiagen). […] A quantitative PCR analysis was performed for the obtained cDNA using primers to fibroblast growth factor 2 (FGF-2), insulin-like growth factor 1 (IGF-1), and glyceraldehyde-3-phosphate dehydrogenase (G3PDH) by PRISM 7900 (ABI). […] The improving effect on a decrease in the expression levels of neurotrophic factors were determined based on the recovery on the expression levels of neurotrophic factors in the drug administration group as compared with the vehicle administration group. […]

[4] = test system: insulin-like growth factor 1 (IGF-1); experiment: Quantitative PCR of neurotrophic factor expression, dorsal root ganglia of STZ-induced diabetic rats; format: in vivo, rat; details: 30 mg/kg
Description: as §1, §2

[5] = target: T1, Cytochrome P-450 (1A2) (Homo sapiens, UniProt P05177); experiment: Test for Cytochrome P-450 (1A2) enzyme inhibition using human liver microsomes; format: in vitro ADME
T1 construct: 0.2 mg protein/mL human liver microsomes; from tissue; host or cells: human liver microsomes
T1 sequence (P05177 1-516): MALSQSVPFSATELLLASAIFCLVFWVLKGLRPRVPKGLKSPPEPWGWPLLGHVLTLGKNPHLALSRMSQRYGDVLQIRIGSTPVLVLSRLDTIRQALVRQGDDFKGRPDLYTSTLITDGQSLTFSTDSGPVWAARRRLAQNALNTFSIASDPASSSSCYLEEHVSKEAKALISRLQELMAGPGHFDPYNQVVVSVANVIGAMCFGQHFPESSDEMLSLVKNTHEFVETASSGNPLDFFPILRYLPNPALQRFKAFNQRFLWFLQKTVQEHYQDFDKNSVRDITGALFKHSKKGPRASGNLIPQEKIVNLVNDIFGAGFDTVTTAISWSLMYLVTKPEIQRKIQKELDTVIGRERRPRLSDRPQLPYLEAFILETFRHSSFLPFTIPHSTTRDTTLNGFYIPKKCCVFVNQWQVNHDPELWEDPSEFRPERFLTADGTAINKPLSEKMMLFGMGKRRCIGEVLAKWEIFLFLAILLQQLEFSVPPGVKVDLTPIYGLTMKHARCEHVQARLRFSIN
Description: An experiment was performed according to the method of Rae Yuan et al. (Drug Metabolism and Disposition, 30(12), 1311-1319, 2002).
By using a 96-well plate, a test drug (0.3 to 10 μmol/L) was added to 100 mmol/L Na-K phosphate buffer (pH=7.4) containing 0.1 mmol/L ethylenediaminetetraacetic acid (EDTA), 1 mmol/L nicotinamide adenine dinucleotide phosphate (NADPH), and 0.2 mg protein/mL human liver microsomes, and the total volume was made up to 145 μL, and then, preincubation of the resulting mixture was started at 37° C. At 5 minutes after the start of preincubation, phenacetin (20 mmol/L) was added thereto as a substrate for P450(1A2), and the total volume was made up to 150 μL, and then, the resulting mixture was incubated at 37° C. for 20 minutes. Thereafter, 130 μL of acetonitrile was added to the sample to stop the reaction. For the sample in which the reaction was stopped, the concentration of acetaminophen which is a metabolite of phenacetin was determined using LC/MS/MS.
A production amount of acetaminophen in the absence of the test drug was taken as 100%, and a production amount of acetaminophen in the presence of the test drug was calculated for each concentration of the test drug. Based on the calculated production amount for each concentration of the test drug, a concentration of the test drug at which the production amount of acetaminophen was 50% (IC50 value) was calculated from the following equation. The test was performed for two cases, and a mean value was used for the calculation of each value.
Production amount [I] (%)=100/(1+[I]/IC50)
Production amount [I] (%): (Production amount of acetaminophen when the test compound concentration was [I])/(Production amount of acetaminophen in the absence of test compound)×100

[6] = 30 mg/kg orally once daily for 28 days, measured on day 7 of cessation of drug
[7] = 30 mg/kg orally once daily, day 28 of repeated administration, 1 hour after administration

Row | SMILES | effect on the decrease in the withdrawal threshold (von Frey test) [1, 6] | effect on the decrease in the withdrawal threshold (von Frey test) [1, 7] | MNCV ([2]; p.o., day 7 to 8 of drug withdrawal after repeated daily administration, mean ± SEM, Normal 62.4, Vehicle 49.4) [m/s] | improving effect on a decrease in MNCV ([2]; vs vehicle group) | effect on the decrease in the expression level of FGF-2 [3] | relative gene expression level of FGF-2 normalized by G3PDH ([3]; p.o., day 7 to 8 of cessation, mean ± SEM, Normal 100.0, Vehicle 66.9) | effect on the decrease in the expression level of IGF-1 [4] | relative gene expression level of IGF-1 normalized by G3PDH ([4]; p.o., day 7 to 8 of cessation, mean ± SEM, Normal 100.0, Vehicle 54.6) | CYP inhibitory activity [5] | possibility of drug-drug interaction by oral administration ([5]; from difference between IC50 and Cmax at oral administration) | IC50 ([5]; human liver microsomes, substrate phenacetin, acetaminophen production, mean of two cases) [µM]
1 | C1=Cc2cccc(OCC3CNCCO3)c2C1.Cl (racemic) [(±)-2-[(inden-7-yloxy)methyl]morpholine hydrochloride] | significantly restored the decrease in the withdrawal threshold | significantly restored the decrease in the withdrawal threshold | – | – | – | – | – | – | – | – | –
2 | C1=Cc2cccc(OCC3CNCCO3)c2C1.Cl (single isomer, unassigned; (+)) [(+)IDX, (+)-2-[(1H-inden-7-yloxy)methyl]morpholine hydrochloride] | significantly restored the decrease in the withdrawal threshold | significantly restored the decrease in the withdrawal threshold | 53.3 ± 1.1 | significant improving effect | significantly recovers the decrease in the expression levels | 103.5 ± 4.9 | significantly recovers the decrease in the expression levels | 67.7 ± 3.2 | extremely weak | extremely low | 8.1
